This note sets out measurements from patent US4698352A, “4-oxo-1,4-dihydronicotinic acid derivatives, salts thereof, and antibacterial agents containing the same” (Toyama Chemical Co., Ltd., priority 1982, dated 1987).

≈ marks a conversion by molar mass, not a printed value. Read-outs that look alike come from different tables or passages of the source.

Experiment in all cases: Antibacterial activity (MIC), agar dilution
Common to all, as to assay type: cell-based

In experiment [1] the test system is Ps. aeruginosa GN3379*. The following applies: Pseudomonas aeruginosa, 20 h; Ps. aeruginosa GN3379, penicillinase-producing; 10^6 cells per ml; read-out: MIC. An excerpt: (§1) The amount of bacteria inoculated was 10^4 cells per plate (10^6 cells per ml).
(§2) * Penicillinase-producing bacteria

For experiment [2], the system named is St. aureus F-137*. The settings on record: Staphylococcus aureus, 20 h.
From the text: as §1, §2

For experiment [3], the system named is Kl. pneumoniae Y-4*. The settings on record: Klebsiella pneumoniae, 20 h, Kl. pneumoniae Y-4, penicillinase-producing; 10^6 cells per ml; read-out: MIC.
From the text: as §1, §2

The test system of experiment [4] is E. coli TK-3*. The following applies: Escherichia coli, 20 h.
From the text: as §1, §2

Experiment [5] relates to Ps. aeruginosa GN918**. The following applies: Pseudomonas aeruginosa, Ps. aeruginosa GN918, cephalospolinase-producing, 10^6 cells per ml.
From the text: as §1
(§3) ** Cephalospolinase-producing bacteria

In experiment [6] the test system is E. coli GN5482**. The following applies: Escherichia coli, 20 h; E. coli GN5482, cephalospolinase-producing; 10^6 cells per ml; read-out: MIC.
From the text: as §1, §3

The test system of experiment [7] is Pro. vulgaris GN76**. The settings on record: Proteus vulgaris.
From the text: as §1, §3

The test system of experiment [8] is Pro. mirabilis T-111. The settings on record: Proteus mirabilis, 37° C.
From the text: as §1

For experiment [9], the system named is Aci. antitratus A-6. The following applies: 20 h, Aci. antitratus A-6; 10^6 cells per ml; 37° C., 20 hours; read-out: MIC.
From the text: as §1

Experiment [10] has as its system Ps. aeruginosa S-68. The following applies: Pseudomonas aeruginosa, S68; Ps. aeruginosa S-68; 10^6 cells per ml; 37° C., 20 hours; read-out: MIC.
From the text: as §1

The test system of experiment [11] is Kl. pneumoniae Y-41. The following applies: Klebsiella pneumoniae, Y41, 10^6 cells per ml, 37° C., 20 hours, read-out: MIC.
From the text: as §1

In experiment [12] the test system is Ps. aeruginosa IFO3445. The following applies: Pseudomonas aeruginosa; Ps. aeruginosa IFO3445; 10^6 cells per ml; 37° C., 20 hours; read-out: MIC.
From the text: as §1

The subject of experiment [13] is Pro. morganii T-216. The settings on record: Morganella morganii, 37° C.
From the text: as §1

The test system of experiment [14] is Kl. pneumoniae Y-50. The following applies: Klebsiella pneumoniae, Y50, 20 h, 10^6 cells per ml, 37° C., read-out: MIC.
From the text: as §1

The subject of experiment [15] is E. coli TK-111. The settings on record: Escherichia coli, TK111, 20 h, E. coli TK-111; 10^6 cells per ml; 37° C., 20 hours; read-out: MIC.
From the text: as §1

In experiment [16] the test system is E. coli NIHJ JC-2. The settings on record: Escherichia coli, NIHJJC2, 20 h, E. coli NIHJ JC-2; 10^6 cells per ml; 37° C., 20 hours; read-out: MIC.
From the text: as §1

Experiment [17] has as its system Pro. vulgaris GN3027. The following applies: Proteus vulgaris, GN3027, 20 h, Pro. vulgaris GN3027; 10^6 cells per ml; 37° C., 20 hours; read-out: MIC.
From the text: as §1

Experiment [18] deals with St. aureus FDA209P. The following applies: Staphylococcus aureus, FDA209P, 20 h.
From the text: as §1

In experiment [19] the test system is Ent. cloacae IID977. The following applies: Enterobacter cloacae, IID977, 20 h.
From the text: as §1

[20] abbreviates: 20 h, Pro. vulgaris GN76, cephalospolinase-producing, 10^6 cells per ml, read-out: MIC.
Setting [21] is: St. aureus F-137, penicillinase-producing, 10^6 cells per ml, read-out: MIC.
Where [22] appears, read: St. aureus FDA209P, 10^6 cells per ml, 37° C., 20 hours, read-out: MIC.
Setting [23] is: E. coli TK-3, penicillinase-producing, 10^6 cells per ml, read-out: MIC.
The mark [24] stands for this setting: Ent. cloacae IID977, 10^6 cells per ml, 37° C., 20 hours, read-out: MIC.

Consider `Cc1ccc(-c2cc(=O)c(C(=O)O)cn2-c2ccc(F)cc2)s1`, for which the MIC in experiment [1] came out at 25 µg/mL (≈ 75.9 µM); in experiment [2] it was 3.13 µg/mL (≈ 9.5 µM); in experiment [3] it was 12.5 µg/mL (≈ 38 µM); in experiment [4] it was 3.13 µg/mL (≈ 9.5 µM); in experiment [5] (20 h, read-out: MIC) it was 50 µg/mL (≈ 152 µM); in experiment [6] it was 0.2 µg/mL (≈ 0.607 µM). For the same compound, the MIC in experiment [7] (setting [20]) came to 1.56 µg/mL (≈ 4.74 µM); in experiment [8] (T111, 20 h, 10^6 cells per ml), 6.25 µg/mL (≈ 19 µM); in experiment [9], 1.56 µg/mL (≈ 4.74 µM); in experiment [10], 25 µg/mL (≈ 75.9 µM); in [11] it was 6.25 µg/mL (≈ 19 µM); in experiment [12], 50 µg/mL (≈ 152 µM). Moreover, the MIC came to 3.13 µg/mL (≈ 9.5 µM) in experiment [13] (T216, 20 h, 10^6 cells per ml); 3.13 µg/mL (≈ 9.5 µM) in experiment [14]; 0.78 µg/mL (≈ 2.37 µM) in experiment [15]; 1.56 µg/mL (≈ 4.74 µM) in experiment [16]; 0.2 µg/mL (≈ 0.607 µM) in experiment [17]; 3.13 µg/mL (≈ 9.5 µM) in experiment [18]. Moreover, the MIC in [19] was determined as 3.13 µg/mL (≈ 9.5 µM).

Turning to `Cc1nc(-c2ccc(-c3cc(=O)c(C(=O)O)cn3-c3ccc(F)cc3)cc2)cs1`, the MIC was found to be 25 µg/mL (≈ 61.5 µM) in [1]; 0.2 µg/mL (≈ 0.492 µM) in [2] (setting [21]); 25 µg/mL (≈ 61.5 µM) in experiment [3]; 3.13 µg/mL (≈ 7.7 µM) in experiment [4]; 3.13 µg/mL (≈ 7.7 µM) in experiment [5] (GN918, 20 h); 0.78 µg/mL (≈ 1.92 µM) in [6]. Moreover, the MIC in experiment [7] (GN76, 20 h) is 3.13 µg/mL (≈ 7.7 µM); in experiment [8] (T111, 20 h, 10^6 cells per ml) it was 6.25 µg/mL (≈ 15.4 µM); in [9], 0.1 µg/mL (≈ 0.246 µM); in experiment [10], 12.5 µg/mL (≈ 30.8 µM); in [11] it was 6.25 µg/mL (≈ 15.4 µM); in [12] it was 25 µg/mL (≈ 61.5 µM). The MIC came to 3.13 µg/mL (≈ 7.7 µM) in experiment [13] (T216, 20 h, 10^6 cells per ml); 3.13 µg/mL (≈ 7.7 µM) in experiment [14]; 0.39 µg/mL (≈ 0.96 µM) in experiment [15]; 1.56 µg/mL (≈ 3.84 µM) in experiment [16]; 1.56 µg/mL (≈ 3.84 µM) in experiment [17]; 0.2 µg/mL (≈ 0.492 µM) in experiment [18] (setting [22]). This compound came in with an MIC in [19] of 6.25 µg/mL (≈ 15.4 µM).

For the compound `Cc1cc(O)ccc1-n1cc(C(=O)O)c(=O)cc1C1CC=CCC1` (stereo not shown), the MIC amounted to 6.25 µg/mL (≈ 19.2 µM) in [1]; 0.1 µg/mL (≈ 0.307 µM) in experiment [2] (setting [21]); 1.56 µg/mL (≈ 4.79 µM) in [3]; 0.78 µg/mL (≈ 2.4 µM) in [4] (setting [23]); 0.78 µg/mL (≈ 2.4 µM) in experiment [5] (20 h, read-out: MIC); 0.1 µg/mL (≈ 0.307 µM) in experiment [6]. For the same compound, the MIC was determined as 0.39 µg/mL (≈ 1.2 µM) in experiment [7] (setting [20]); 1.56 µg/mL (≈ 4.79 µM) in [8] (T111, 20 h, 10^6 cells per ml); 0.2 µg/mL (≈ 0.615 µM) in experiment [9]; 6.25 µg/mL (≈ 19.2 µM) in [10]; 1.56 µg/mL (≈ 4.79 µM) in experiment [11]; 6.25 µg/mL (≈ 19.2 µM) in [12]. Besides, the MIC is 1.56 µg/mL (≈ 4.79 µM) in experiment [13] (T216, 20 h, 10^6 cells per ml); 0.39 µg/mL (≈ 1.2 µM) in experiment [14]; 0.1 µg/mL (≈ 0.307 µM) in experiment [15]; 0.39 µg/mL (≈ 1.2 µM) in [16]; at most 0.05 µg/mL in experiment [17]; 0.2 µg/mL (≈ 0.615 µM) in experiment [18] (setting [22]). For the same compound, the MIC in experiment [19] (setting [24]) came to 0.78 µg/mL (≈ 2.4 µM).

As for `Cn1ccc2cc(-c3cc(=O)c(C(=O)O)cn3-c3ccc(O)cc3F)ccc21`, the MIC in [1] is 3.13 µg/mL (≈ 8.27 µM); in experiment [2] (setting [21]), at most 0.05 µg/mL; in experiment [3] it was 0.78 µg/mL (≈ 2.06 µM); in experiment [4] (setting [23]), 0.2 µg/mL (≈ 0.529 µM); in experiment [5] (20 h, read-out: MIC), 0.78 µg/mL (≈ 2.06 µM); in experiment [6] it was at most 0.05 µg/mL. In addition, the MIC is 0.39 µg/mL (≈ 1.03 µM) in experiment [7] (setting [20]); 0.39 µg/mL (≈ 1.03 µM) in experiment [8] (T111, 10^6 cells per ml, 20 hours, read-out: MIC); at most 0.05 µg/mL in experiment [9]; 1.56 µg/mL (≈ 4.12 µM) in [10]; 0.39 µg/mL (≈ 1.03 µM) in experiment [11]; 1.56 µg/mL (≈ 4.12 µM) in [12]. The MIC in experiment [13] (T216, 10^6 cells per ml, 20 hours, read-out: MIC) is 0.39 µg/mL (≈ 1.03 µM); in experiment [14], 0.2 µg/mL (≈ 0.529 µM); in [15], at most 0.05 µg/mL; in experiment [16] it was at most 0.05 µg/mL; in experiment [17], at most 0.05 µg/mL; in experiment [18] (setting [22]), 0.05 µg/mL (≈ 0.132 µM). The MIC in experiment [19] (setting [24]) was found to be 0.39 µg/mL (≈ 1.03 µM).
